The values below come from patent publication US6887658B2, “Methods of identifying non-specific inhibitors of biomolecules” (Northwestern University, priority 2001, dated 2005).

The test system of data set [1] is HIV Tar RNA. The note with it: original target; read-out: IC50 Original Target(s): HIV Tar RNA; cited from earlier work.
Data set [2] can be described thus: Dynamic light scattering (DLS). In kind it is physicochemical.
In data set [3] the target is T1, AmpC β-lactamase (Escherichia coli, UniProt P00811). The conditions noted are these: for ↑ IC50 vs. 10x β-lactamase: 10-fold increase in β-lactamase; for ↑ IC50 vs. 10x Enzyme: β-lactamase 10 nM vs 1 nM.
Data set [4] deals with chymotrypsin (Bos taurus, UniProt P00766). The experiment in a line: chymotrypsin inhibition enzyme assay. In kind it is biochemical.
Data set [5] has as its target T1, AmpC β-lactamase. The experiment in a line: biochemical.
Data set [6] is classed as physicochemical. The note with it: 625 μM in 20 mM Tris, pH 7.2.
Data set [7] deals with model enzymes (β-lactamase, chymotrypsin, DHFR, β-galactosidase). In kind it is biochemical.
The target in data set [8] is triosephosphate isomerase (Plasmodium falciparum, UniProt Q07412). The note with it: read-out: IC50 Original Target(s): TIM; cited from earlier work.
Data set [9] deals with prion. The note with it: original target; read-out: IC50 Original Target(s): prion; cited from earlier work.
The target of data set [10] is insulin receptor (Homo sapiens, UniProt P06213). The conditions noted are these: original target; footnote b: Kd; read-out: Kd Original Target(s): insulin receptor; cited from earlier work.
The target of data set [11] is β-galactosidase (Escherichia coli, UniProt P00722). The experiment in a line: biochemical. The conditions noted are these: for ↑ IC50 in the presence of BSA, against β-galactosidase: 0.1 mg/mL BSA.
Data set [12] concerns the target phosphoinositide 3-kinase. The note with it: original target; read-out: IC50 Original Target(s): PI3K; cited from earlier work.
Data set [13] concerns the target integrase. The note with it: original target; read-out: IC50 Original Target(s): integrase; cited from earlier work.
Data set [14] deals with thymidylate synthase. The conditions noted are these: original target; read-out: IC50 Original Target(s): TS; cited from earlier work.
Data set [15] concerns kinesin. The note with it: original target; read-out: IC50 Original Target(s): kinesin; cited from earlier work.
Data set [16] deals with neuronal nitric oxide synthase. The conditions noted are these: original target; read-out: IC50 Original Target(s): nNOS; cited from earlier work.
The test system of data set [17] is endothelial nitric oxide synthase. The note with it: original target; read-out: IC50 Original Target(s): eNOS; cited from earlier work.
Setting [18] is: Table 4, 50 mM KPi, at the concentration under DLS conc.
[19] abbreviates: Table 6, incubation with β-lactamase, 5 min.
Setting [20] is: Table 6, read-out: IC50 vs. chymo.
Setting [21] is: Table 2, 5 min preincubation of inhibitor and enzyme vs none.

Like-named read-outs stand apart in the source and are kept apart here.

T1 sequence (P00811 20-377 limits assumed): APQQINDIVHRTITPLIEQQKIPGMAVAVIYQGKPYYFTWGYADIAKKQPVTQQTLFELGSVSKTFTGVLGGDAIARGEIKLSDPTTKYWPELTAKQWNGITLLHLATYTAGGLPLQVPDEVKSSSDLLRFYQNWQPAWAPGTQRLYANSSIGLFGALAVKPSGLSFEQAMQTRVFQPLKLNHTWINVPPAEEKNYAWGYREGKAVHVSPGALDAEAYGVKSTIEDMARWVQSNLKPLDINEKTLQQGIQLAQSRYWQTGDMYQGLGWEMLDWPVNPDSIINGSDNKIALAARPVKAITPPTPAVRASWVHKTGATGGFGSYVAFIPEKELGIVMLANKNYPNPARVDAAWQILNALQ
Sequence of β-galactosidase (P00722 2-1024 limits assumed): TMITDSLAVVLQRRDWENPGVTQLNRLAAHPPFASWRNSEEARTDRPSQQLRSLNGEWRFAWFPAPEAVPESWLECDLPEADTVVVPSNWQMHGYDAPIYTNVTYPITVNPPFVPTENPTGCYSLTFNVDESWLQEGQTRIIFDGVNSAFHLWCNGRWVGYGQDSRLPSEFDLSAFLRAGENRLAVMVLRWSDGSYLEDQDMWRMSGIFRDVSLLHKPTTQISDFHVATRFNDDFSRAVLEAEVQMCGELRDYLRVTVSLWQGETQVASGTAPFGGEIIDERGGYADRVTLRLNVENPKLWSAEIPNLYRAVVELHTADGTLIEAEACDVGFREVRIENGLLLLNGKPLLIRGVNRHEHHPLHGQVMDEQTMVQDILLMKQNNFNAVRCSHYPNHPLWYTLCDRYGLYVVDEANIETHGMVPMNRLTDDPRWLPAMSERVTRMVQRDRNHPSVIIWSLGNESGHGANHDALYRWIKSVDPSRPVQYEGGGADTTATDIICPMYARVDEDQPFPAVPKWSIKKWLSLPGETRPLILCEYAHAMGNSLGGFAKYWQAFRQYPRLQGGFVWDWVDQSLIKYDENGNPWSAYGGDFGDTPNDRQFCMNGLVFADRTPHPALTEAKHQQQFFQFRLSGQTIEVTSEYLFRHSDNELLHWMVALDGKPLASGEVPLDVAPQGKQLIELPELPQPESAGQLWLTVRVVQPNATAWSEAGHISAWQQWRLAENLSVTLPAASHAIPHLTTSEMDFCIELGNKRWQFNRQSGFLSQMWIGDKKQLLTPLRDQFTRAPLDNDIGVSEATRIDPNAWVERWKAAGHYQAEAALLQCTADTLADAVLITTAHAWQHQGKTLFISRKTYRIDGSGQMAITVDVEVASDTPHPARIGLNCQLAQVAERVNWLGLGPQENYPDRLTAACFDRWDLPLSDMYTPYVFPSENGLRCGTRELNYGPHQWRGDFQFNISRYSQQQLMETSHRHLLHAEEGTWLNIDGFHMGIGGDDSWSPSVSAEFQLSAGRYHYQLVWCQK
Sequence of insulin receptor (P06213 28-1382, species assumed): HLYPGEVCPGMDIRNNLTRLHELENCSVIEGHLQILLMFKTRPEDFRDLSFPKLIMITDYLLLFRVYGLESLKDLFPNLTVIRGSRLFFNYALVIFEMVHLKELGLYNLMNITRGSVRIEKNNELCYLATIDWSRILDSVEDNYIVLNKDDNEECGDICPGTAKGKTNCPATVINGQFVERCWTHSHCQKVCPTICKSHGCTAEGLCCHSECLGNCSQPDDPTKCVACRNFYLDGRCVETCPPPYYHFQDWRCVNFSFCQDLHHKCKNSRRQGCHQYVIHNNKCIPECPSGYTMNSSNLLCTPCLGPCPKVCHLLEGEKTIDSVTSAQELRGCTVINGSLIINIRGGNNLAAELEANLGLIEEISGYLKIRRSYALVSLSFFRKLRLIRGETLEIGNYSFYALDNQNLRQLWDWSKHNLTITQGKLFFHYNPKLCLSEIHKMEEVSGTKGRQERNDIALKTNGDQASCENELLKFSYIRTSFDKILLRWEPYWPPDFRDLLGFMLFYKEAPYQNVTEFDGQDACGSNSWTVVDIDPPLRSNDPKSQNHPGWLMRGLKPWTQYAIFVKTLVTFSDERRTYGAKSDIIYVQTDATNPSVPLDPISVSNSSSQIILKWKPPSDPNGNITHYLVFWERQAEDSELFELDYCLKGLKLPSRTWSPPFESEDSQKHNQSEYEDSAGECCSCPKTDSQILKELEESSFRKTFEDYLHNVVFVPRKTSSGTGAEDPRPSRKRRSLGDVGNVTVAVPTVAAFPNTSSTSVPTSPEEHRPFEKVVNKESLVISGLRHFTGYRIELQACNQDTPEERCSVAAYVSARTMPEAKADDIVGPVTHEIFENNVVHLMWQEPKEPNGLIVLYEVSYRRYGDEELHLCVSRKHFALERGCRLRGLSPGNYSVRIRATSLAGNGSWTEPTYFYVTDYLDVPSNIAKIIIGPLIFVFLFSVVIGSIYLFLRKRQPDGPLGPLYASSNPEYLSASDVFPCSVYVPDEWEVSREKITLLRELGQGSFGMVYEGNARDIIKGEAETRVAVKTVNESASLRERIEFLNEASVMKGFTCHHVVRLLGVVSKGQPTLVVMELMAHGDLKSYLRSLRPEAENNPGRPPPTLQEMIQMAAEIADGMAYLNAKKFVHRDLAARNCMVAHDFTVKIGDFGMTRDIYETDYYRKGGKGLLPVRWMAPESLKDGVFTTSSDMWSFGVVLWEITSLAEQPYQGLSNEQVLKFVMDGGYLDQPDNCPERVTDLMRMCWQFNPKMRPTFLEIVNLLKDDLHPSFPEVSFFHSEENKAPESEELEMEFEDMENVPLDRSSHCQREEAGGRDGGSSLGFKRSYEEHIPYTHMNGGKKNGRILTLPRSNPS
Sequence of triosephosphate isomerase (Q07412 whole entry): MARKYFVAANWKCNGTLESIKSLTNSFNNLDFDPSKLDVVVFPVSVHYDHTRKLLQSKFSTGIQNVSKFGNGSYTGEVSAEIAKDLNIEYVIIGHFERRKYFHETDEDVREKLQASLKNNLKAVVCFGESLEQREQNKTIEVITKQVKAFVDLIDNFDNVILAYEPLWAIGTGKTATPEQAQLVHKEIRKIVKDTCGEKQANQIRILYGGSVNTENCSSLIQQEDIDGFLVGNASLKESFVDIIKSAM

With `O=S(=O)(O)c1cc(O)c(/N=N/c2ccc3ccccc3c2O)c2ccccc12`, in [1], the IC50 was 50 µM.
With `O=C1C2C(C(=O)N1Nc1ccc([N+](=O)[O-])cc1[N+](=O)[O-])[C@@]1(Cl)C(Cl)=C(Cl)[C@]2(Cl)C1(Cl)Cl` (stereo partly drawn), the “Diameter, 5 mM KPi” value in data set [2] (DLS in 5 mM KPi) is on record as 143.5 ± 7.9 nm. In data set [2] (setting [18]), the “DLS Diameter” value is given as 418.6 ± 38.8 nm and the “DLS Intensity” value turned out to be 24.9 ± 3.1 kcps.
On to `O=C(N/N=C/c1ccccc1O)C(=O)N/N=C/c1ccccc1O`, for which the “Diameter, 5 mM KPi” value in data set [2] (DLS in 5 mM KPi) is 389.3 ± 55.4 nm. In addition, the “Diameter, 500 mM KPi” value in [2] (DLS in 500 mM KPi) was 426.6 ± 23.8 nm. In addition, in data set [2] (setting [18]), the “DLS Diameter” value was determined as 394.6 ± 12.5 nm and the “DLS Intensity” value stood at 26.4 ± 5.1 kcps.
Take `O=C(O)c1cc(-c2ccc(Cl)cc2)nc(-c2ccc(Nc3ccc(Cl)cc3)cc2)c1`: in data set [3] (Table 6), the “↑ IC50 vs. 10x β-lactamase” value is 4-fold. In addition, the “↓ IC50 with Incubation” value in data set [3] (setting [19]) was 12-fold. In addition, the IC50 in data set [4] (setting [20]) and in data set [5] was 2 µM each time.
Regarding `CC(C)(C)c1ccc(-c2cc(C(=O)O)cc(-c3ccc(Cl)c(O)c3)n2)cc1`, the “↑ IC50 vs. 10x β-lactamase” value in data set [3] (Table 6) is given as 12-fold. The “↓ IC50 with Incubation” value in data set [3] (setting [19]) was >50-fold. Moreover, the IC50 in data set [4] (setting [20]) came to 13 µM; in data set [5], 4 µM.
Turning to `CCCC[n+]1ccc(-c2cc(C(=O)O)cc(-c3ccc(Cl)cc3)n2)cc1`, in data set [3] (Table 6), the “↑ IC50 vs. 10x β-lactamase” value was 20-fold. For the same compound, the “↓ IC50 with Incubation” value in [3] (setting [19]) is 24-fold. The IC50 in data set [5] was found to be 8 µM.
Regarding `O=C1Nc2cccc(O)c2C1Cc1ccc2c(c1)CCCC2` (stereo not drawn), the “↑ IC50 vs. 10x β-lactamase” value in data set [3] (Table 6) is 6-fold. Moreover, in data set [3] (setting [19]), the “↓ IC50 with Incubation” value is listed as 3-fold. The IC50 was 40 µM in data set [4] (setting [20]) and 15 µM in data set [5].
Consider `O=S(=O)(O)Cc1cc2cc(S(=O)(=O)O)c(/N=N/c3ccc(Br)cc3S(=O)(=O)O)c(O)c2c(O)c1/N=N/c1ccc(Br)cc1S(=O)(=O)O`, for which, in data set [3] (Table 6), the “↑ IC50 vs. 10x β-lactamase” value is given as >50-fold. Moreover, the “↓ IC50 with Incubation” value in data set [3] (setting [19]) is recorded as 2-fold. This compound also displayed an IC50 in data set [5] of 80 µM.
For `CC(C)c1ccc(/C=C2/C(=O)Nc3ccccc32)cc1` [3-(4-isopropylbenzylidene)indolin-2-one], in data set [2] (DLS in 5 mM KPi), the “Diameter, 5 mM KPi” value is listed as 247.1 ± 12.8 nm. Moreover, in data set [2] (DLS in 500 mM KPi), the “Diameter, 500 mM KPi” value came out at 494.3 ± 48.1 nm. Also, in [2] (setting [18]), the “DLS Diameter” value stood at 379.0 ± 14.1 nm and the “DLS Intensity” value turned out to be 43.8 ± 5.7 kcps.
For `O=S(=O)(O)c1cccc2cccc(Nc3ccccc3)c12` [ANS, 8-anili-no-1-naphthalene-sulfonic acid], in data set [2], the “DLS Diameter” value is “No particles”; the “DLS Intensity” value was determined as 0.5 ± 0.1 kcps; the “Diameter, 5 mM KPi” value was “No particles”; the “Diameter, 50 mM KPi” value is given as “No particles”. In addition, in data set [2], the “Diameter, 500 mM KPi” value is “No particles”. The “particles observed by TEM” value in data set [6] is on record as “Particles were not observed”. The “inhibition of the model enzymes” value in data set [7] was “does not inhibit the model enzymes”.
In the case of `OB(O)c1cc2ccccc2s1` [Benzo[b]thiophene-2-boronic acid], in data set [2] (50 mM KPi), the “particle formation in solution by DLS (autocorrelation function)” value (“particle formation in solution by DLS” for short) is “not observed to form particles”. Also, in [2] (DLS in 5 mM KPi), the “Diameter, 5 mM KPi” value is “No particles”. Also, the “Diameter, 50 mM KPi” value in data set [2] (DLS in 50 mM KPi) is listed as “No particles”. In addition, the “Diameter, 500 mM KPi” value in [2] (DLS in 500 mM KPi) is recorded as “No particles”. In addition, in data set [2] (setting [18]), the “DLS Diameter” value is reported as “No particles” and the “DLS Intensity” value amounted to 0.9 ± 0.2 kcps. Besides, in data set [3] (setting [21]), the “↓ IC50 with Incubation” value is given as “No change”. For the same compound, the “↑ IC50 vs. 10x Enzyme” value in data set [3] (Table 2) was “No change”.
Take `Nc1c(/N=N/c2ccc(-c3ccc(/N=N/c4cc(S(=O)(=O)O)c5ccccc5c4N)cc3)cc2)cc(S(=O)(=O)O)c2ccccc12` [Congo Red]: in data set [2], the “DLS Diameter” value amounted to 202.6 ± 22.5 nm, the “DLS Intensity” value is on record as 131.1 ± 64.3 kcps and the “particle formation in solution by DLS” value is listed as “did form particles detectable by DLS”. For the same compound, the “inhibition of the model enzymes” value in data set [7] is “inhibit the model enzymes”. In data set [8], the IC50 was 30.4 µM. Also, the IC50 in data set [9] was 1 µM.
For the compound `O=C1OC2(c3cc(I)c(O)c(I)c3Oc3c2cc(I)c(O)c3I)c2c(Cl)c(Cl)c(Cl)c(Cl)c21` [Rose Bengal lactone], the Kd in data set [10] is 20 µM.
In turn, `O=C1O/C(=C\Nc2ccc(Oc3ccccc3)cc2)c2ccccc21` [drawing 3] returned an IC50 in [5] of 5 µM.
With `Oc1ccc(/N=N/c2ccc(Br)cc2)cc1` [drawing 33], in data set [11], the “↑ IC50 in the presence of BSA, against β-galactosidase” value was 8 fold.
In the case of `O=C1O/C(=C\Nc2ccc(Oc3ccccc3)cc2)c2ccccc21` [drawing 34], the “↑ IC50 in the presence of BSA, against β-galactosidase” value in data set [11] is 9 fold.
With `Oc1ccc(/N=N/c2ccc(Br)cc2)cc1` [drawing 40], in data set [2] (DLS in 5 mM KPi), the “Diameter, 5 mM KPi” value stood at 140.2 ± 12.1 nm. Further, in data set [2] (DLS in 500 mM KPi), the “Diameter, 500 mM KPi” value is 267.4 ± 24.5 nm. In data set [2] (setting [18]), the “DLS Diameter” value is 176.2 ± 7.9 nm and the “DLS Intensity” value is given as 12.6 ± 3.9 kcps.
`O=C1O/C(=C\Nc2ccc(Oc3ccccc3)cc2)c2ccccc21` [drawing 41]: in data set [2] (setting [18]), the “DLS Diameter” value is listed as 94.7 ± 4.2 nm and the “DLS Intensity” value is listed as 16.2 ± 1.1 kcps.
For the compound `O=c1c(O)c(-c2ccc(O)c(O)c2)oc2cc(O)cc(O)c12` [quercetin], the IC50 in data set [12] is 3.8 µM; in [13] it was 11 µM; in data set [11] (Table 1, 37° C.), 220 µM.
Consider `O=C1C(I)=CC(=C(c2cc(I)c(O)c(I)c2)c2ccccc2C(=O)O)C=C1I` [tetraiodophenolphthalein], for which the “particle formation in solution by DLS” value in data set [2] (50 mM KPi) was “presence of particles”. Further, the “Diameter, 5 mM KPi” value in [2] (DLS in 5 mM KPi) is 86.2 ± 10.5 nm. In addition, the “Diameter, 500 mM KPi” value in [2] (DLS in 500 mM KPi) is 320.4 ± 38.8 nm. In data set [2] (setting [18]), the “DLS Diameter” value came out at 153.4 ± 26.0 nm and the “DLS Intensity” value is listed as 42.2 ± 3.9 kcps. Further, the “DLS mean diameter in the TEM conditions” value in [2] (same conditions as TEM) is 83.2 ± 6.5 nm. Moreover, the IC50 in data set [14] is 3 µM. Moreover, the IC50 in data set [15] was 30 µM.
With tris (dicarboxymethylene) fullerene-C3, the “↓ IC50 with Incubation” value in data set [3] (setting [21]) was 2-fold. Also, the “↑ IC50 vs. 10x Enzyme” value in [3] (Table 2) was >50-fold. Further, the IC50 is 7 µM in data set [3] (read-out: IC50 β-lactamase, Table 1, 50 mM KPi pH 7.0, 5 min incubation, 1 nM enzyme); 24 µM in data set [16]; 60 µM in data set [4] (Table 1, read-out: IC50 Chymotrypsin); 17 µM in data set [17].
